According to patent publication US20090239846A1, “Novel Compounds” (Glaxo Group Limited, priority 2005, published 2009):
Where a name gives a salt, the structure may show the parent alone. Read-outs that look alike come from different tables or passages of the source.

Experiments:
[1] = tested on: IL-8 production by human neutrophils; assay: TNF-stimulated IL-8 production from human neutrophils; type: cell-based; conditions: Neutrophil
Description: TNF-Stimulated IL-8 Production from Human Neutrophils The effect of test compounds on TNF-stimulated IL8 production by human neutrophils is measured as follows. Neutrophils are prepared from blood obtained from consenting donors, using standard methods. Blood is collected in heparinized syringes and layered over histopaque (30 ml/20 ml). Following centrifugation, the red cell pellet is resuspended in PBS and purified over a dextran gradient. Red blood cells are lysed with water for 40 sec, remaining granulocytes collected by centrifugation and resuspended at 1.5×10̂6 cells/ml. Cells are added (0.5-1 ml) to 48 well plates already containing compound at 1000×final concentration in neat DMSO or 10% DMSO in RPMI1640 with 10% FBS. TNF (final concentration 100 ng/ml) is used as the stimulus. Cells incubated for approximately 20 hrs at 37° C., 5% CO2. Levels of IL-8 in the cell free supernatant are determined by sandwich ELISA, and inhibition relative to a control with DMPO but no compound is calculated.

[2] = tested on: influx of neutrophils to the lung in LPS-challenged rats; assay: Rat LPS neutrophilia model; type: in vivo; conditions: LPS aerosol, lavage 4 hours later, in at least one of the range of conditions tested, significance p<0.05
How it was run: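 Rats pretreated 15 min–24 h with compound or vehicle, given intratracheally (200 ul, isoflurane anaesthesia) as suspension in various vehicles, then exposed to LPS aerosol (100 ug/ml) 15 min. BAL 4 h later; Diffquick-stained differential counts give % inhibition of neutrophils versus no-compound controls at a set concentration and pretreatment time.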

[3] = molecular target: T1, Recombinant human p38α (Homo sapiens, UniProt Q16539); assay: Fluorescence anisotropy kinase binding assay (standard or low volume); conditions: for active in the assay (pIC50, p38α binding): 12 nM p38α, 5 nM fluorescent ligand
T1 construct: GST; made in house
How it was run: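 Activated GST-tagged recombinant human p38α (pre-activated with MBP-MKK6 DD) at 12 nM final with 5 nM rhodamine green-labelled pyridinylimidazole tracer in pH 7.5 HEPES/CHAPS/DTT/MgCl2 buffer. Test compound 0.28 nM–16.6 μM or 0.02 nM–25 μM final, 3% or 1.7% DMSO; 30–60 min at room temperature. Fluorescence anisotropy read (ex 485/em 535 nm) for Ki.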

[4] = bound, not more than 50% inhibition at 100 nM, read-out: IC50
[5] = bound, read-out: apparent pIC50 (converted)

T1 sequence (Q16539 whole entry): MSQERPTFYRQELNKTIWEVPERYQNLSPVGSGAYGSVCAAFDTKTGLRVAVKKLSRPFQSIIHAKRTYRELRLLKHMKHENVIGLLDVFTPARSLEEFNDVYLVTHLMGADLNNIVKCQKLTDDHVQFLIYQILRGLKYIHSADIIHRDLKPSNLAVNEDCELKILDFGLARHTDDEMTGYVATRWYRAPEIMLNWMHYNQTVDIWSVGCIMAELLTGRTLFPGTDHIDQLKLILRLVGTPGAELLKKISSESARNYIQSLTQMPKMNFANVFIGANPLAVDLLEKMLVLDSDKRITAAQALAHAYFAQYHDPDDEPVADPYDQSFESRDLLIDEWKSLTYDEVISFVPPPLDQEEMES

SMILES | melting point | IC50 [1, 4] [nM] | also measured
Cc1ccc(C(=O)NC(C)C)cc1-c1nc(N2CCC(N3CCN(C)CC3)CC2)nc2c1CNC(=O)N2c1c(F)cccc1F [Example 72, 3-{8-(2,6-difluorophenyl)-2-[4-(4-methyl-1-piperazinyl)-1-piperidinyl]-7-oxo-5,6,7,8-tetrahydropyrimido[4,5-d]pyrimidin-4-yl}-4-methyl-N-(1-methylethyl)benzamide] |  |  | IC50 ([1]; bound, screened at a different top concentration, read-out: IC50): > 1 nM; inhibition of neutrophilia [2]: statistically significant inhibition of neutrophilia
Cc1ccc(C(=O)NCc2ccccc2)cc1-c1nc(N2CCC(N(C)C(=O)OC(C)(C)C)CC2)nc2c1CNC(=O)N2c1c(F)cccc1F [Example 147, 1,1-dimethylethyl {1-[8-(2,6-difluorophenyl)-4-(2-methyl-5-{[(phenylmethyl)amino]carbonyl}phenyl)-7-oxo-5,6,7,8-tetrahydropyrimido[4,5-d]pyrimidin-2-yl]-4-piperidinyl}methylcarbamate] | 146 to 150 °C (dec.) |  | 
CNC(=O)c1ccc(C)c(-c2nc(NCCCNC(C)C)nc3c2CNC(=O)N3c2c(F)cccc2F)c1 [Example 168, 3-[8-(2,6-difluorophenyl)-2-({3-[(1-methylethyl)amino]propyl}amino)-7-oxo-5,6,7,8-tetrahydropyrimido[4,5-d]pyrimidin-4-yl]-N,4-dimethylbenzamide] | 153 to 157 °C (dec.) |  | 
CNC(=O)c1ccc(C)c(-c2nc(NC3CCN(C)CC3)nc3c2CNC(=O)N3c2c(F)cccc2F)c1 [Example 173, 3-{8-(2,6-difluorophenyl)-2-[(1-methyl-4-piperidinyl)amino]-7-oxo-5,6,7,8-tetrahydropyrimido[4,5-d]pyrimidin-4-yl}-N,4-dimethylbenzamide] | 205 to 209 °C (dec.) |  | 
COc1nc(-c2cc(NC(=O)c3ccsc3)ccc2C)c2c(n1)N(c1c(F)cccc1F)C(=O)NC2 [10(e), N-{3-[8-(2,6-difluorophenyl)-2-(methyloxy)-7-oxo-5,6,7,8-tetrahydropyrimido-[4,5-d]pyrimidin-4-yl]-4-methylphenyl}-3-thiophenecarboxamide] | 225 to 228 °C (dec.) |  | active in the assay (pIC50, p38α binding) [3]: active
CCOc1nc(-c2cc(NC(=O)c3ccc(C)c(F)c3)ccc2C)c2c(n1)N(c1c(F)cccc1F)C(=O)NC2 [Example 25] | 257.3 to 262.5 °C |  | 
CN(C)CCNc1nc(-c2ccc(C(N)=O)cc2)c2c(n1)N(c1c(F)cccc1F)C(=O)NC2 [Example 103, 4-(8-(2,6-difluorophenyl)-2-{[2-(dimethylamino)ethyl]amino}-7-oxo-5,6,7,8-tetrahydropyrimido[4,5-d]pyrimidin-4-yl)benzamide trifluoroacetate] |  | > 100 | IC50 [3, 5]: > 15.8 µM
Cc1ccc(C(=O)NCC2CC2)cc1-c1nc(N(C)CCN)nc2c1CNC(=O)N2c1c(F)cccc1F [4(c), 3-[2-[(2-Aminoethyl)(methyl)amino]-8-(2,6-difluorophenyl)-7-oxo-5,6,7,8-tetrahydropyrimido[4,5-d]pyrimidin-4-yl]-N-(cyclopropylmethyl)-4-methylbenzamide] |  | > 100 | active in the assay (pIC50, p38α binding) [3]: active
CCCCN(CCCC)CCCNc1nc(-c2cc(C(=O)NC)ccc2C)c2c(n1)N(c1c(F)cccc1F)C(=O)NC2 [Example 171, 3-[2-{[3-(dibutylamino)propyl]amino}-8-(2,6-difluorophenyl)-7-oxo-5,6,7,8-tetrahydropyrimido[4,5-d]pyrimidin-4-yl]-N,4-dimethylbenzamide] | 112 to 115 °C |  | 
CNC(=O)c1ccc(C)c(-c2nc(NCCCNC(C)(C)C)nc3c2CNC(=O)N3c2c(F)cccc2F)c1 [Example 170, 3-[8-(2,6-difluorophenyl)-2-({3-[(1,1-dimethylethyl)amino]propyl}amino)-7-oxo-5,6,7,8-tetrahydropyrimido[4,5-d]pyrimidin-4-yl]-N,4-dimethylbenzamide] | 166 to 170 °C (dec.) |  | 
Cc1ccc(C(=O)Nc2ccc(C)c(-c3nc(S(C)(=O)=O)nc4c3CNC(=O)N4c3c(F)cccc3F)c2)cc1F [23(d), N-[3-[8-(2,6-difluorophenyl)-2-(methylsulfonyl)-7-oxo-5,6,7,8-tetrahydropyrimido[4,5-d]pyrimidin-4-yl]-4-methylphenyl]-3-fluoro-4-methylbenzamide] |  | > 100 | active in the assay (pIC50, p38α binding) [3]: active
Cc1ccc(C(=O)NCc2ccccc2)cc1-c1nc(S(C)(=O)=O)nc2c1CNC(=O)N2c1c(F)cccc1F [15(b), 3-[8-(2,6-Difluorophenyl)-2-(methylsulfonyl)-7-oxo-5,6,7,8-tetrahydropyrimido[4,5-d]pyrimidin-4-yl]-4-methyl-N-(phenylmethyl)benzamide] |  | > 100 | active in the assay (pIC50, p38α binding) [3]: active
CCN(CC)C(=O)c1ccc(C)c(-c2nc(S(C)(=O)=O)nc3c2CNC(=O)N3c2c(F)cccc2F)c1 [156(b), 3-[8-(2,6-difluorophenyl)-2-(methylsulfonyl)-7-oxo-5,6,7,8-tetrahydropyrimido[4,5-d]pyrimidin-4-yl]-N,N-diethyl-4-methylbenzamide] |  | > 100 | active in the assay (pIC50, p38α binding) [3]: active
Cc1ccc(NC(=O)c2ccsc2)cc1-c1nc(N(C)C)nc2c1CNC(=O)N2c1c(F)cccc1F [Example 12, N-{3-[8-(2,6-difluorophenyl)-2-(dimethylamino)-7-oxo-5,6,7,8-tetrahydropyrimido[4,5-d]pyrimidin-4-yl]-4-methylphenyl}-3-thiophenecarboxamide] | 214 to 215 °C |  | 
CSc1nc(-c2cc(C(=O)NCc3ccccc3)ccc2C)c2c(n1)N(c1c(F)cccc1F)C(=O)NC2 [15(a), 3-[8-(2,6-Difluorophenyl)-2-(methylthio)-7-oxo-5,6,7,8-tetrahydropyrimido[4,5-d]pyrimidin-4-yl]-4-methyl-N-(phenylmethyl)benzamide] |  |  | IC50 ([1]; ends given as 'less than' / 'greater than', read-out: IC50, broad range of data upon multiple runs): 40 to 100 nM; active in the assay (pIC50, p38α binding) [3]: active

Continued, in another order:

melting point | IC50 [1, 4] [nM] | SMILES | also measured
160 to 165 °C (dec.) |  | Cc1ccc(C(=O)NCc2ccccc2)cc1-c1nc(NC2CC(C)(C)NC(C)(C)C2)nc2c1CNC(=O)N2c1c(F)cccc1F [Example 16, 3-{8-(2,6-Difluorophenyl)-7-oxo-2-[(2,2,6,6-tetramethyl-4-piperidinyl)amino]-5,6,7,8-tetrahydropyrimido[4,5-d]pyrimidin-4-yl}-4-methyl-N-(phenylmethyl)benzamide] | 
 | > 100 | CN(C)CCNc1nc(-c2ccc(C(=O)Nc3nccs3)cc2)c2c(n1)N(c1c(F)cccc1F)C(=O)NC2 [96(b), 4-(8-(2,6-difluorophenyl)-2-{[2-(dimethylamino)ethyl]amino}-7-oxo-5,6,7,8-tetrahydropyrimido[4,5-d]pyrimidin-4-yl)-N-1,3-thiazol-2-ylbenzamide] | active in the assay (pIC50, p38α binding) [3]: active
 | > 100 | Cc1ccc(C(=O)NC(C)C)cc1-c1nc(N2CCN(C(c3ccccc3)c3ccccc3)CC2)nc2c1CNC(=O)N2c1c(F)cccc1F [Example 84, 3-{8-(2,6-difluorophenyl)-2-[4-(diphenylmethyl)-1-piperazinyl]-7-oxo-5,6,7,8-tetrahydropyrimido[4,5-d]pyrimidin-4-yl}-4-methyl-N-(1-methylethyl)benzamide trifluoroacetate] | IC50 ([3]; second end given as 'less than', read-out: pIC50, broad range of data upon multiple runs (converted)): > 1.78 µM
 | > 100 | CCCNC(=O)c1ccc(-c2nc(NCCN(C)C)nc3c2CNC(=O)N3c2c(F)cccc2F)cc1 [Example 98, 4-(8-(2,6-difluorophenyl)-2-{[2-(dimethylamino)ethyl]amino}-7-oxo-5,6,7,8-tetrahydropyrimido[4,5-d]pyrimidin-4-yl)-N-propylbenzamide trifluoroacetate] | IC50 [3, 5]: > 15.8 µM
136 to 139 °C (dec.) |  | CNC(=O)c1ccc(C)c(-c2nc(NCCNC(C)C)nc3c2CNC(=O)N3c2c(F)cccc2F)c1 [Example 167, 3-[8-(2,6-difluorophenyl)-2-({2-[(1-methylethyl)amino]ethyl}amino)-7-oxo-5,6,7,8-tetrahydropyrimido[4,5-d]-pyrimidin-4-yl]-N,4-dimethylbenzamide] | 
 | > 100 | CN(C)CCNc1nc(-c2ccc(C(=O)Nc3ccc(F)cc3)cc2)c2c(n1)N(c1c(F)cccc1F)C(=O)NC2 [Example 100, 4-(8-(2,6-difluorophenyl)-2-{[2-(dimethylamino)ethyl]amino}-7-oxo-5,6,7,8-tetrahydropyrimido[4,5-d]pyrimidin-4-yl)-N-(4-fluorophenyl)benzamide trifluoroacetate] | IC50 [3, 5]: > 15.8 µM
203 to 207 °C (dec.) |  | CNc1nc(-c2cc(NC(=O)c3ccsc3)ccc2C)c2c(n1)N(c1c(F)cccc1F)C(=O)NC2 [Example 14, N-{3-[8-(2,6-difluorophenyl)-2-(methylamino)-7-oxo-5,6,7,8-tetrahydropyrimido[4,5-d]pyrimidin-4-yl]-4-methylphenyl}-3-thiophenecarboxamide] | 
164 to 168 °C (dec.) |  | CNC(=O)c1ccc(C)c(-c2nc(N3CCN(C)CC3)nc3c2CNC(=O)N3c2c(F)cccc2F)c1 [Example 169, 3-[8-(2,6-difluorophenyl)-2-(4-methyl-1-piperazinyl)-7-oxo-5,6,7,8-tetrahydropyrimido[4,5-d]pyrimidin-4-yl]-N,4-dimethylbenzamide] | 
199 to 202 °C (dec.) |  | CCOc1nc(-c2cc(NC(=O)c3ccsc3)ccc2C)c2c(n1)N(c1c(F)cccc1F)C(=O)NC2 [Example 13] | 
